# Assay results as given in US20250221413A1, “Use and Preparation Method of Sulfoxamyl, and Oxidation System” (priority 2023, published 2025).
# Where “and” joins values, the source holds several entries; their conditions need not be identical. Equal entries are not always repeated. Entries after “also recorded” stand apart in the source; their conditions may differ.
# How the values were obtained:
# SD rats [1] = assay: Acute oral toxicity test, single oral fixed-dose procedure; type: in vivo
# Protocol: (§1) Materials: the test agent 98% sulfoxamyl technical, batch number 20230708-1, was provided by Ningxia Hugerise Chemical Co., Ltd. Experimental animals: SPF-grade SD rats, half male and half female, weighing 180 g to 220 g, were provided by Jinan Pengyue Experimental Animal Breeding Co., Ltd., license number SCXK (Lu) 20190003. Rearing environment: the rats were housed in an SPF-grade animal room with free access to water and food, a temperature of 20° C. to 25° C., a humidity of 40% to 60%, and a 12 h/12 h light cycle. Feed: conventional pellet feed was provided by Jinan Pengyue Experimental Animal Breeding Co., Ltd.
# (§2) The test was conducted in accordance with “Toxicological test methods of pesticides for registration, GB15670.5-2017”, “Acute toxicity test, GB15193.3-2003” and relevant acute toxicity research data.
# Methods: a single oral fixed-dose procedure was conducted to preliminarily explore the toxic dose range of sulfoxamyl. LD50 and confidence limits were calculated by using the probability unit method (Bliss method). SD rats were randomly divided into 5 groups, 10 rats in each group, half of them were male and half were female. […] The common ratio value among each dose group was 0.75. After a single oral administration, the mortality rate of the experimental animals was recorded within 24 h and 14 days after administration, while the general condition of the animals was observed, and the food intake and body weight changes were recorded.
# SD rats [2] = assay: Acute oral toxicity test, probability unit method (Bliss method), LD50 by Probit regression; type: in vivo; details: for Death count: 24 h
# Protocol: as §1, §2
# Methods: a single oral fixed-dose procedure was conducted to preliminarily explore the toxic dose range of sulfoxamyl. LD50 and confidence limits were calculated by using the probability unit method (Bliss method). SD rats were randomly divided into 5 groups, 10 rats in each group, half of them were male and half were female. The dosages administered to each group were 474.61 mg/kg, 632.81 mg/kg, 843.75 mg/kg, 1,125 mg/kg, and 1,500 mg/kg. The common ratio value among each dose group was 0.75. After a single oral administration, the mortality rate of the experimental animals was recorded within 24 h and 14 days after administration, while the general condition of the animals was observed, and the food intake and body weight changes were recorded.
# According to the above test dose, number of animals, number of deaths and other data, SPSS statistical software was used to calculate LD50 by Probit regression, and the results are shown in Table 3.
# [3] = Acute skin toxicity test (limit test); type: in vivo, SD rats; details: both sexes, rat, in vivo, topical, 2000 mg/kg; SD rats, 24 h exposure, 14 days observation; read-out: acute percutaneous toxicity LD50
# Protocol: as §1, §2
# (§3) Method: the sulfoxamyl was ground into powder, passed through a 200-mesh sieve, and fully moistened with 0.5% tragacanth solution to ensure desirable contact between the drug and the skin. The dose limit of the drug's transdermal toxicity was preliminarily determined through a limit test. According to the “Toxicological test methods of pesticides for registration, GB/T 15670.5-2017”, 2,000 mg/kg was selected as the dose limit. 10 SD rats were selected, half male and half female. After removing the fur and preparing the skin on the midline of the rats' backs, the prepared skin area was 36 cm^2 to 40 cm^2. The drug was evenly applied to the fur-removed area and covered and fixed with multiple layers of sterile gauze; after 24 h of exposure to the poison, the residual drug on the skin was removed; the rats were observed once a day for 14 consecutive days, and their poisoning reaction, development process, and death were recorded.
# SD rats [4] = assay: Acute skin toxicity test (limit test); type: in vivo
# Protocol: as §1, §2, §3
compound,measurement,setting,value
"CNC(=O)O/N=C(/C(=O)N(C)C)S(C)(=O)=O [Sulfoxamyl, N,N-dimethyl-2-[[[(methylamino)carbonyl]oxy]imino]-2-(methylsulfonyl)acetamide]",Main clinical symptom,SD rats [1]; single oral dose 50 mg/kg,Asymptomatic
same,Death count,"SD rats [1]; single oral dose 50 mg/kg, 50 mg/kg",0/6
same,Death count,"SD rats [1]; single oral dose 50 mg/kg, listed as sulfoxamyl, 50 mg/kg",no animals die
same,Main clinical symptom,SD rats [1]; single oral dose 500 mg/kg,"Some rats with intense abdominal breathing,"
same,Death count,"SD rats [1]; single oral dose 500 mg/kg, 500 mg/kg",0/6
same,Death count,"SD rats [1]; single oral dose 500 mg/kg, listed as sulfoxamyl, 500 mg/kg",no animals die
same,Main clinical symptom,SD rats [1]; single oral dose 1000 mg/kg,"Intense abdominal breathing,"
same,Death count,"SD rats [1]; single oral dose 1000 mg/kg, 1000 mg/kg",8/10
same,Death count,"SD rats [1]; single oral dose 1000 mg/kg, listed as sulfoxamyl, 1000 mg/kg",8
same,Main clinical symptom,SD rats [1]; single oral dose 2000 mg/kg,"Intense abdominal breathing,"
same,Death count,"SD rats [1]; single oral dose 2000 mg/kg, 2000 mg/kg",6/6
same,Death count,"SD rats [1]; single oral dose 2000 mg/kg, listed as sulfoxamyl, 2000 mg/kg",all animals
same,toxicity level (acute oral),SD rats [2]; GB15670-1995 classification,low toxic; also recorded: Low Toxicity
same,Probit Estimation for dose,SD rats [2]; Probability 0.010,379.474 mg/kg
same,Probit Estimation for log(dose),SD rats [2]; Probability 0.010,2.579
same,Probit Estimation for dose,SD rats [2]; Probability 0.020,415.442 mg/kg
same,Probit Estimation for log(dose),SD rats [2]; Probability 0.020,2.619
same,Probit Estimation for dose,SD rats [2]; Probability 0.030,440.010 mg/kg
same,Probit Estimation for log(dose),SD rats [2]; Probability 0.030,2.643
same,Probit Estimation for dose,SD rats [2]; Probability 0.040,459.445 mg/kg
same,Probit Estimation for log(dose),SD rats [2]; Probability 0.040,2.662
same,Probit Estimation for dose,SD rats [2]; Probability 0.050,475.885 mg/kg
same,Probit Estimation for log(dose),SD rats [2]; Probability 0.050,2.678
same,Probit Estimation for dose,SD rats [2]; Probability 0.060,490.341 mg/kg
same,Probit Estimation for log(dose),SD rats [2]; Probability 0.060,2.690
same,Probit Estimation for dose,SD rats [2]; Probability 0.070,503.377 mg/kg
same,Probit Estimation for log(dose),SD rats [2]; Probability 0.070,2.702
same,Probit Estimation for dose,SD rats [2]; Probability 0.080,515.342 mg/kg
same,Probit Estimation for log(dose),SD rats [2]; Probability 0.080,2.712
same,Probit Estimation for dose,SD rats [2]; Probability 0.090,526.471 mg/kg
same,Probit Estimation for log(dose),SD rats [2]; Probability 0.090,2.721
same,Probit Estimation for dose,SD rats [2]; Probability 0.100,536.928 mg/kg
same,Probit Estimation for log(dose),SD rats [2]; Probability 0.100,2.730
same,Probit Estimation for dose,SD rats [2]; Probability 0.150,582.478 mg/kg
same,Probit Estimation for log(dose),SD rats [2]; Probability 0.150,2.765
same,Probit Estimation for dose,SD rats [2]; Probability 0.200,621.421 mg/kg
same,Probit Estimation for log(dose),SD rats [2]; Probability 0.200,2.793
same,Probit Estimation for dose,SD rats [2]; Probability 0.250,656.898 mg/kg
same,Probit Estimation for log(dose),SD rats [2]; Probability 0.250,2.817
same,Probit Estimation for dose,SD rats [2]; Probability 0.300,690.481 mg/kg
same,Probit Estimation for log(dose),SD rats [2]; Probability 0.300,2.839
same,Probit Estimation for dose,SD rats [2]; Probability 0.350,723.131 mg/kg
same,Probit Estimation for log(dose),SD rats [2]; Probability 0.350,2.859
same,Probit Estimation for dose,SD rats [2]; Probability 0.400,755.539 mg/kg
same,Probit Estimation for log(dose),SD rats [2]; Probability 0.400,2.878
same,Probit Estimation for dose,SD rats [2]; Probability 0.450,788.276 mg/kg
same,Probit Estimation for log(dose),SD rats [2]; Probability 0.450,2.897
same,Probit Estimation for dose,SD rats [2]; Probability 0.500,821.879 mg/kg
same,Probit Estimation for log(dose),SD rats [2]; Probability 0.500,2.915
same,Probit Estimation for dose,SD rats [2]; Probability 0.550,856.914 mg/kg
same,Probit Estimation for log(dose),SD rats [2]; Probability 0.550,2.933
same,Probit Estimation for dose,SD rats [2]; Probability 0.600,894.044 mg/kg
same,Probit Estimation for log(dose),SD rats [2]; Probability 0.600,2.951
same,Probit Estimation for dose,SD rats [2]; Probability 0.650,934.112 mg/kg
same,Probit Estimation for log(dose),SD rats [2]; Probability 0.650,2.970
same,Probit Estimation for dose,SD rats [2]; Probability 0.700,978.282 mg/kg
same,Probit Estimation for log(dose),SD rats [2]; Probability 0.700,2.990
same,Probit Estimation for dose,SD rats [2]; Probability 0.750,1028.295 mg/kg
same,Probit Estimation for log(dose),SD rats [2]; Probability 0.750,3.012
same,Probit Estimation for dose,SD rats [2]; Probability 0.800,1087.001 mg/kg
same,Probit Estimation for log(dose),SD rats [2]; Probability 0.800,3.036
same,Probit Estimation for dose,SD rats [2]; Probability 0.850,1159.674 mg/kg
same,Probit Estimation for log(dose),SD rats [2]; Probability 0.850,3.064
same,Probit Estimation for dose,SD rats [2]; Probability 0.900,1258.055 mg/kg
same,Probit Estimation for log(dose),SD rats [2]; Probability 0.900,3.100
same,Main clinical symptom,SD rats [2]; oral 474.61 mg/kg,Asymptomatic
same,Death count,"SD rats [2]; oral 474.61 mg/kg, 474.61 mg/kg",no experimental animals and 0/10
same,Main clinical symptom,SD rats [2]; oral 632.81 mg/kg,"Intense abdominal breathing,"
same,Death count,"SD rats [2]; oral 632.81 mg/kg, 632.81 mg/kg",3 and 3/10
same,Main clinical symptom,SD rats [2]; oral 843.75 mg/kg,"Intense abdominal breathing, malaise, drooling, tremors"
same,Death count,"SD rats [2]; oral 843.75 mg/kg, 843.75 mg/kg",6 and 6/10
same,Main clinical symptom,SD rats [2]; oral 1125 mg/kg,"Intense abdominal breathing, malaise, drooling, tremors"
same,Death count,"SD rats [2]; oral 1125 mg/kg, 1125 mg/kg",7 and 8/10
same,Main clinical symptom,SD rats [2]; oral 1500 mg/kg,"Intense abdominal breathing,"
same,Death count,"SD rats [2]; oral 1500 mg/kg, 1500 mg/kg",all animals and 10/10
same,new deaths 14 days after administration compared to 24 h,"SD rats [2]; oral, all dose groups",no new deaths
same,LD50 at 14 days,[3],> 2000 mg/kg
same,"percutaneous toxicity, in words","SD rats [4]; 2,000 mg/kg",no percutaneous toxicity
same,Main clinical symptom,"SD rats [4]; 2,000 mg/kg on skin, 10 SD rats","skin is intact, normal in color, and without redness or swelling"
same,deaths,"SD rats [4]; 2,000 mg/kg on skin, 10 SD rats, 14 days",none of the 10 rats die
same,Main clinical symptom,"SD rats [4]; 2,000 mg/kg on skin, 10 SD rats, listed as sulfoxamyl",Normal
same,toxicity level (acute percutaneous),SD rats [4]; GB15670-1995 classification,low toxic; also recorded: Low Toxicity
